Patent US20240336568A1, “SELECTIVE PHD1 INHIBITOR COMPOUNDS, COMPOSITIONS, AND METHODS OF USE” (Akebia Therapeutics, Inc., priority 2021, published 2024)

test system: full-length human prolyl-4-hydroxylase domain (PHD) enzymes, PHD1 and PHD2; test: TR-FRET assay, selectivity of compounds for PHD1 over PHD2 (ratio of Kis calculated from IC50s); type: biochemical; details: ratio of Kis (PHD2 Ki/PHD1 Ki), Kis calculated from TR-FRET IC50s by Cheng Prussoff equation; 1 uM 2-OG
From the text: Time-resolved fluorescence resonance energy transfer (TR-FRET) assay was utilized to determine the enzymatic half maximal inhibitory concentration (IC50) value of PHD inhibitors against the full-length human prolyl-4-hydroxylase domain (PHD) enzymes, PHD1 and PHD2. The TR-FRET assay was developed based on the specific binding of hydroxylated HIF-la peptide with the complex formed by VHL, EloB and EloC (VBC), to generate a fluorescent signal. Terbium (Tb)-Donor (monoclonal antibody anti-6His-Tb-cryptate Gold) and D2-acceptor (streptavidin [SA]-D2) of TR-FRET are linked to the VBC complex and to HIF-1α peptide, respectively. The VBC complex binds specifically to the HIF-1α peptide when it is hydroxylated, allowing energy transfer from TR-FRET donor to acceptor (FIG. 1).
TR-FRET Reagents. Monoclonal antibody anti-6His-Tb-cryptate Gold (catalog #61HI2TLA) and streptavidin (SA)-D2 (catalog #610SADLA) were purchased from CisBio International (Bedford, MA, USA).
N-terminus biotinylated HIF-1α C35 synthetic peptide representing amino acids 547 to 581 and including the proline 564 PHD2 hydroxylation site was purchased from California Peptide Research (Salt Lake City, UT, USA).
VBC Complex. His-tagged recombinant VHL protein, EloB, EloC complex (His-VBC) was supplied by Axxam (Milan, Italy). Recombinant human VHL (National Center for Biotechnology Information [NCBI] accession number NP_00542.1) contained a His tag at the C-terminus of amino acids 55 to 213 and is referred to as VHL-His. VHL-His was co-expressed in E. coli with full-length human EloB (NCBI accession number Q15370.1) and full-length human EloC (NCBI accession number Q15369.1) and purified by affinity chromatography on a nickel-nitrilotriacetic acid (Ni-NTA) column as the His-VBC complex. Purity (˜80%) was assessed by sodium dodecyl sulfate polyacrylamide gel electrophoresis (SDS-PAGE).
PHD1. Recombinant human PHD1 protein (catalog #81064, Lot #24717001) was purchased from Active Motif (Carlsbad, CA, USA). PHD1 was expressed in a baculovirus expression system as the full-length protein (NCBI accession number NP_542770.2) with an N-terminal FLAG tag (molecular weight 44.9 kDa). Purity (>90%) was assessed by SDS-PAGE.
PHD2. The full-length human PHD2 enzyme was produced with a baculovirus infected insect cell (BIIC) expression system by Beryllium (Bedford, MA, USA). The PHD2 construct contained amino acids 1 to 426 of PHD2 (UniProt Knowledgebase[UniProtKB]/Swiss-Prot accession number Q9GZT9.1), and a His tag and a Tobacco Etch Virus (TEV) protease cleavage site at the N-terminus. The construct was expressed in Sf9 insect cells, purified by Ni-NTA column and digested with TEV protease to remove the His tag.
Compounds were preincubated with PHD enzyme in a 10 μL reaction volume in white 384-well Optiplate microplates (catalog #6007290, Perkin Elmer, Waltham, MA, USA). For this, 5 μL compound was serially diluted with dilution buffer (50 mM HEPES [4-(2-hydroxyethyl)-1-piperazineethanesulfonic acid] pH 7.5, 50 mM sodium chloride [NaCl], 0.01% Tween-20, 0.01% purified bovine serum albumin [BSA]) and mixed with 5 μL PHD enzyme mix prepared as a 4× concentrate in the dilution buffer containing PHD enzyme (60 nM PHD1, 20 nM PHD2, 140 nM PHD3), 40 μM ferrous ammonium sulfate (FAS), 4 mM sodium (Na) ascorbate. The plates were incubated for 30 minutes at room temperature without rotation.
Five microliters of the VBC/anti-6His-Tb-cryptate Gold mix prepared as a 4× concentrate in dilution buffer containing 20 nM His-VBC, 1.32 nM monoclonal antibody anti-6His-Tb-cryptate Gold was then added. This step was followed immediately by the addition of 5 μL of the HIF-1α C35 substrate mix prepared as a 4× concentrate in the dilution buffer containing 120 nM biotin-labeled HIF-1α C35, 132 nM SA-D2, 4 μM 2-oxoglutarate (2-OG) to reach a final reaction volume of 20 μL. […]

Compound	Selectivity of PHD1 over PHD2 [fold]
CC(C)(CNC(=O)c1ncc(-c2cccc(Nc3ccc(Cl)cc3)c2)cc1O)C(=O)O [compound 25, 3-(5-(3-((4-chlorophenyl)amino)phenyl)-3-hydroxypicolinamido)-2,2-dimethylpropanoic acid]	~213
COc1ccc2cc(-c3cnc(C(=O)NCC(C)(C)C(=O)O)c(O)c3)ccc2c1 [compound 41, 3-(3-hydroxy-5-(6-methoxynaphthalen-2-yl)picolinamido)-2,2-dimethylpropanoic acid]	~1960
CC(C)(CNC(=O)c1ncc(-c2ccc3ccccc3c2)cc1O)C(=O)O [compound 17, 3-(3-hydroxy-5-(naphthalen-2-yl)picolinamido)-2,2-dimethylpropanoic acid]	~1031
CC(C)c1ccc2sc(-c3cnc(C(=O)NCC(C)(C)C(=O)O)c(O)c3)cc2c1 [compound 61, 3-(3-hydroxy-5-(5-isopropylbenzo[b]thiophen-2-yl)picolinamido)-2,2-dimethylpropanoic acid]	~341
COc1cc2c(-c3cnc(C(=O)NCC(C)(C)C(=O)O)c(O)c3)cn(C)c2cn1 [compound 55, 3-(3-hydroxy-5-(5-methoxy-1-methyl-1H-pyrrolo[2,3-c]pyridin-3-yl)picolinamido)-2,2-dimethylpropanoic acid]	~96
CC(C)(CNC(=O)c1ncc(-c2cccc(N)c2)cc1O)C(=O)O [compound 29, 3-(5-(3-aminophenyl)-3-hydroxypicolinamido)-2,2-dimethylpropanoic acid]	~20
CC(C)(CNC(=O)c1ncc(-c2cccc(OCc3ccc(Cl)cc3)c2)cc1O)C(=O)O [compound 22, 3-(5-(3-((4-chlorobenzyl)oxy)phenyl)-3-hydroxypicolinamido)-2,2-dimethylpropanoic acid]	~261
CC(C)(CNC(=O)c1ncc(-c2cccc3ccccc23)cc1O)C(=O)O [compound 20, 3-(3-hydroxy-5-(naphthalen-1-yl)picolinamido)-2,2-dimethylpropanoic acid]	~159
CC(C)(CNC(=O)c1ncc(-c2ccc3cc(OCc4ccc(Cl)cc4)ccc3c2)cc1O)C(=O)O [compound 27, 3-(5-(6-((4-chlorobenzyl)oxy)naphthalen-2-yl)-3-hydroxypicolinamido)-2,2-dimethylpropanoic acid]	~24
CC(C)(C)OC(=O)N1CCc2sc(-c3cnc(C(=O)NCC(C)(C)C(=O)O)c(O)c3)cc2C1 [compound 33, 3-(5-(5-(tert-butoxycarbonyl)-4,5,6,7-tetrahydrothieno[3,2-c]pyridin-2-yl)-3-hydroxypicolinamido)-2,2-dimethylpropanoic acid]	~1605
C[C@@H](CC(=O)O)NC(=O)c1ncc(-c2cccc(Cl)c2)cc1O [compound 2, (S)-3-(5-(3-chlorophenyl)-3-hydroxypicolinamido)butanoic acid]	~16
Cc1ccc2cc(-c3cnc(C(=O)NCC(C)(C)C(=O)O)c(O)c3)ccc2n1 [compound 45, 3-(3-hydroxy-5-(2-methylquinolin-6-yl)picolinamido)-2,2-dimethylpropanoic acid]	~3740
O=C(O)CCNC(=O)c1ncc(-c2cccc(Cl)c2)cc1O [compound 5, 3-(5-(3-chlorophenyl)-3-hydroxypicolinamido)propanoic acid]	~12
CCCn1cc(-c2cnc(C(=O)NCC(C)(C)C(=O)O)c(O)c2)cn1 [compound 7, 3-(3-hydroxy-5-(1-propyl-1H-pyrazol-4-yl)picolinamido)-2,2-dimethylpropanoic acid]	~503
CC(C)(CNC(=O)c1ncc(-c2cccc(COc3cccc4ccccc34)c2)cc1O)C(=O)O [compound 18, 3-(3-hydroxy-5-(3-((naphthalen-1-yloxy)methyl)phenyl)picolinamido)-2,2-dimethylpropanoic acid]	~885
CC(C)(CNC(=O)c1ncc(-c2cnn(-c3cccc(C(F)(F)F)c3)c2)cc1O)C(=O)O [compound 37, 3-(3-hydroxy-5-(1-(3-(trifluoromethyl)phenyl)-1H-pyrazol-4-yl)picolinamido)-2,2-dimethylpropanoic acid]	~25
CC(C)(CNC(=O)c1ncc(-c2cccc(Cl)c2)cc1O)C(=O)O [compound 4, 3-(5-(3-chlorophenyl)-3-hydroxypicolinamido)-2,2-dimethylpropanoic acid]	~1187
CC(C)(CNC(=O)c1ncc(-c2cccc(O)c2)cc1O)C(=O)O [compound 21, 3-(3-hydroxy-5-(3-hydroxyphenyl)picolinamido)-2,2-dimethylpropanoic acid]	~1494
CC(C)(CC(=O)O)NC(=O)c1ncc(-c2cccc(Cl)c2)cc1O [compound 1, 3-(5-(3-chlorophenyl)-3-hydroxypicolinamido)-3-methylbutanoic acid]	~14
CC(C)(CNC(=O)c1ncc(-c2cccc(-c3cccnc3)c2)cc1O)C(=O)O [compound 15, 3-(3-hydroxy-5-(3-(pyridin-3-yl)phenyl)picolinamido)-2,2-dimethylpropanoic acid]	~125
CC(C)(CNC(=O)c1ncc(-c2cccc(NCCc3ccc(Cl)cc3)c2)cc1O)C(=O)O [compound 52, 3-(5-(3-((4-Chlorophenethyl)amino)phenyl)-3-hydroxypicolinamido)-2,2-dimethylpropanoic acid]	~31
CC(C)(CNC(=O)c1ncc(-c2ccc3nccnc3c2)cc1O)C(=O)O [compound 46, 3-(3-hydroxy-5-(quinoxalin-6-yl)picolinamido)-2,2-dimethylpropanoic acid]	~124
Cc1ncc(-c2cnc(C(=O)NCC(C)(C)C(=O)O)c(O)c2)s1 [compound 14, 3-(3-hydroxy-5-(2-methylthiazol-5-yl)picolinamido)-2,2-dimethylpropanoic acid]	~15
CC(C)(CNC(=O)c1ncc(-c2ccc3cc(O)ccc3c2)cc1O)C(=O)O [compound 23, 3-(3-hydroxy-5-(6-hydroxynaphthalen-2-yl)picolinamido)-2,2-dimethylpropanoic acid]	~113
CC(C)(CNC(=O)c1ncc(-c2ccc3cc(Oc4ccc(Cl)cc4)ccc3c2)cc1O)C(=O)O [compound 26, 3-(5-(6-(4-chlorophenoxy)naphthalen-2-yl)-3-hydroxypicolinamido)-2,2-dimethylpropanoic acid]	~31
CC(C)(CNC(=O)c1ncc(-c2cccc(OCC3CC3)c2)cc1O)C(=O)O [compound 12, 3-(5-(3-(cyclopropylmethoxy)phenyl)-3-hydroxypicolinamido)-2,2-dimethylpropanoic acid]	~1984
CC(C)(CNC(=O)c1nc(C#N)c(-c2cccc(Cl)c2)cc1O)C(=O)O [compound 51, 3-(5-(3-chlorophenyl)-6-cyano-3-hydroxypicolinamido)-2,2-dimethylpropanoic acid]	~4
